Values of other authors as cited in patent US7645795B2, “Method for treating amyotrophic lateral sclerosis” (BodyBio, Inc, priority 2004, dated 2010).

Test system: ALS patients

In the case of `Nc1nc2ccc(OC(F)(F)F)cc2s1` [riluzole], the “Extension of lifespan of ALS patients” value is given as “approximately 3 months” and the Hepatic effect is given as “evokes hepatic stress upon elevation of liver enzymes”.
